Three compounds from PMC4589331, “Interactions of L-3,5,3'-Triiodothyronine, Allopregnanolone, and Ivermectin with the GABAA Receptor: Evidence for Overlapping Intersubunit Binding Modes” (PLoS ONE, 2015) can be followed below.

Structures are written as SMILES.

One experiment has as its system uninjected oocytes. Kind of experiment: Two-electrode voltage-clamp recording of uninjected oocytes. Format: cell-based, Xenopus laevis. To be noted: data not shown. The method, then: (§1) X. laevis were anesthetized by placing them in solution of 1 g tricaine methanesulfonate (MS222) per 500 mL in de-chlorinated water. A small incision in the abdomen was made 1 cm away from and parallel to the midline and lobes of ovary were removed. The lobes were gently agitated at room temperature with collagenase (2 mg/mL) in calcium free OR-2 (82.5 mM NaCl, 2.5 mM KCl, 1 mM MgCl2, 5 mM HEPES, pH adjusted to 7.6 with NaOH) until the ovarian epithelium and the follicular cell layer were removed (~2 hrs). Oocytes were checked for proper size and shape, color, and for the presence of distinct animal and vegetal poles. Viable oocytes were placed in ND96 solution (96 mM NaCl, 2mM KCl, 1 mM MgCl2, 1 mM CaCl2, 5 mM HEPES, pH adjusted to 7.6 with NaOH) and the oocytes were injected with 46 nL cRNAs (1–2 μg/μL) expressing the α1β1γ2 construct using a digital microdispenser (Drummond ‘Nanoject II’), with the ratio α1: β1: γ2 1:1:2. […] Injected oocytes were incubated at 18°C in a sterile solution containing Leibovitz L-15 Medium supplemented with 10 mM HEPES, 50 mg/L gentamicin and 50 mg/L tetracycline at pH 7.4.
After 24 h following injections, oocytes were placed in a recording chamber perfused continuously with ND96. All drugs were perfused into the chamber through a gravity flow system (~5 mL/min). […] Currents were recorded using the iWorx LabScribe v1.959 software. […]

Another experiment concerns the target T1, α1β1γ2 GABAA receptor (Homo sapiens, UniProt P14867+P18505+P18507).
T1 construct: GeneCopoeia (γ2 cDNA); host or cells: Xenopus laevis oocytes injected with cRNAs, ratio α1:β1:γ2 1:1:2
Kind of experiment: Two-electrode voltage-clamp recording of GABAA receptors expressed in Xenopus oocytes. Type of experiment: cell-based. On the procedure: The cDNAs encoding human GABAA receptor α1 and β1 subunits were acquired from American Type Culture Collection (ATCC, Manassas, Virginia), while those encoding γ2 subunits were acquired from GeneCopoeia (Rockville, Maryland). Restriction enzymes for the cDNAs came from New England Biolabs (Ipswich, MA).
HindIII-digested and XholI-digested DNA templates encoding human α1, β1, or γ2 GABAA receptor subunits (4 μg) were transcribed through the mMESSAGE mMACHINE T7 kit from Ambion (Austin, TX). […] The solution was then treated with RNase-free DNase I and precipitated with lithium chloride. The cRNAs were dissolved in double-distilled diethyl-pyrocarbonate (DEPC) treated water to a final concentration of ~ 1–2 μg/ μL. Subunit combinations were aliquoted for the specific receptor type with total concentration remaining ~ 1–2 μg/ μL.
as §1
After 24 h following injections, oocytes were placed in a recording chamber perfused continuously with ND96. All drugs were perfused into the chamber through a gravity flow system (~5 mL/min). Oocytes were impaled with two 3 M KCl-filled glass microelectrodes (~ 1–2 MΩ). Oocytes were then voltage-clamped at -60 mV with a Model OC-725C Oocyte Clamp (Warner Instruments, Hamden, CT). Currents were recorded using the iWorx LabScribe v1.959 software. The peak amplitudes of the responses were used for data analysis.
Oocytes were perfused with ND96 between trials until current returned to baseline (approximately 10–15 minutes).
Graph Pad Prism, version 5.00 (La Jolla, CA), was used for all statistical analysis of two-electrode voltage-clamp data and for fitting the curves by nonlinear regression for determinations of EC50/IC50, min and max response values, and Hill coefficients. To determine the type of competition, a Schild plot analysis was applied to the competitive binding data, utilizing a linear regression fit.

T1 sequence (P14867 28-456): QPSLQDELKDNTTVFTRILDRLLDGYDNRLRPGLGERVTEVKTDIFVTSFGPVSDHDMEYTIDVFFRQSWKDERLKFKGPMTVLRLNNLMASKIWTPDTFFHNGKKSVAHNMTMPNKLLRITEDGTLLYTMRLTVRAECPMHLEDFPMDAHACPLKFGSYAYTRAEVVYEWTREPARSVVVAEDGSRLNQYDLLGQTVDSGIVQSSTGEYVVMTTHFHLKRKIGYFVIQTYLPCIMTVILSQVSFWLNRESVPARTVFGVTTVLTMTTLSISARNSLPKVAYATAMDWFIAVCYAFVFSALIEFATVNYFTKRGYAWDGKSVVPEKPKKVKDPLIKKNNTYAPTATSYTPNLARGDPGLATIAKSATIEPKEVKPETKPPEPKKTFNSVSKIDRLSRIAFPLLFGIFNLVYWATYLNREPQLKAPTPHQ
T1 sequence (P18505 26-474): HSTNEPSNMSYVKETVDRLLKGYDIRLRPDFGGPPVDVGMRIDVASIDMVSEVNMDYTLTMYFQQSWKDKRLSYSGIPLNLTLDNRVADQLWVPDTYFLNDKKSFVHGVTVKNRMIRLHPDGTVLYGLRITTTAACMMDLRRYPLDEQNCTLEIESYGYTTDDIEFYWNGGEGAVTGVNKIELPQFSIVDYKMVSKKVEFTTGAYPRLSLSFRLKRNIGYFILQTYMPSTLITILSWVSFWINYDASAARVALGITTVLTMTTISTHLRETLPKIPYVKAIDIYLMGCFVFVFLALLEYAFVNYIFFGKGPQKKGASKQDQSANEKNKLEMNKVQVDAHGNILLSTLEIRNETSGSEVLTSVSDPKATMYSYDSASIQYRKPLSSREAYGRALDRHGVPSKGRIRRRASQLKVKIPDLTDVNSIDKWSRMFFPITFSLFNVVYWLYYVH
T1 sequence (P18507 40-475): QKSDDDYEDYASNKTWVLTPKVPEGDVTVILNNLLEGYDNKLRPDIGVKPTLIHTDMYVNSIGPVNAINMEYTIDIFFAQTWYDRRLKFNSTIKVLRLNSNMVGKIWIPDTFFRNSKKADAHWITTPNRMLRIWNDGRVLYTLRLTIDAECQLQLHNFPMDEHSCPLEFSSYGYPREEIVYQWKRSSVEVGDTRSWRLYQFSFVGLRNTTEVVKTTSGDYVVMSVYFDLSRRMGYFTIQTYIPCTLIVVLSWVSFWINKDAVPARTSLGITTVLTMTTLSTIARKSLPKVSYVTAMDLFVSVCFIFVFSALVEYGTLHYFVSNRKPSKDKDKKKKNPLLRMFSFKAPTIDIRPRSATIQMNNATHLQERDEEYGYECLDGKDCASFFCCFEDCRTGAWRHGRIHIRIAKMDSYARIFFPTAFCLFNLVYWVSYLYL

Turning to `CCC(C)C1OC2(CCC1C)CC1CC(CC=C(C)C(OC3CC(OC)C(OC4CC(OC)C(O)C(C)O4)C(C)O3)C(C)C=CC=C3COC4C(O)C(C)=CC(C(=O)O1)C34O)O2` (stereo not drawn) [IVM, ivermectin], the “effect of IVM on uninjected oocytes” value in the experiment with uninjected oocytes is “unaffected”. Moreover, the EC50 at α1β1γ2 GABAA receptor stood at 7.1 ± 0.8 µM. Also, at α1β1γ2 GABAA receptor (absence of GABA), the “Hill coefficient of activation by IVM” value is recorded as 1.9 ± 0.4 and the “concentration of apparent maximal effect of IVM” value lay within 20 to 50 µM.

As for `CN1C(=O)CN=C(c2ccccc2)c2cc(Cl)ccc21` [diazepam], the “effect on GABA response (check of γ subunit incorporation)” value at α1β1γ2 GABAA receptor (oocytes injected with α1:β1:γ2 1:1:2) is “potentiation”.

Take `CC(=O)[C@H]1CC[C@H]2[C@@H]3CC[C@H]4C[C@H](O)CC[C@]4(C)[C@H]3CC[C@]12C` [ALLOP, 3α-hydroxy-5α-pregnan-20-one]: the concentration for a half-maximal effect (EC50) on α1β1γ2 GABAA receptor amounted to 0.9 ± 0.1 µM.
